Data from PubChem BioAssay AID248 (DTP/NCI, 2004).
“And” between values parts separate entries of the source, which are not always exact repeats. Equal values may be shown once. Inconclusive results and toxic doses are left out.

Test system: L1210 leukemia ip in BDF1 mice, survival T/C
Experiment: NCI In Vivo Anticancer Drug Screen. Data for tumor model L1210 Leukemia (intraperitoneal) in B6D2F1 (BDF1) mice
Settings: endpoint: mean survival time, vehicle: saline, higher = longer survival
How it was run: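 Value reflects the ratio of survival in compound-treated mice to survival in vehicle-treated controls, with both groups carrying the same transplanted tumor.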

CSc1ncnc2c1ncn2C1OC(CO)C(O)C1O (stereo not drawn)
T/C (dose: 0.5 mg/kg/injection, schedule: Q#A X Z (ip)): 120 % of control
T/C (dose: 0.82 mg/kg/injection, schedule: Q07DX003 (ip)): 107 % of control
T/C (dose: 1.0 mg/kg/injection, schedule: Q01DX Z (ip)): 113 % of control
T/C (dose: 1.25 mg/kg/injection, schedule: Q06HX068 (ip)): 123 % of control
T/C (dose: 2.0 mg/kg/injection, schedule: Q01DX010 (ip)): 109 % of control and 112 % of control
T/C (dose: 2.0 mg/kg/injection, schedule: Q01DX Z (ip)): 123 % of control
T/C (dose: 3.25 mg/kg/injection, schedule: Q07DX003 (ip)): 115 % of control
T/C (dose: 4.0 mg/kg/injection, schedule: Q01DX006 (iv)): 109 % of control
T/C (dose: 4.0 mg/kg/injection, schedule: Q01DX010 (ip)): 117 % of control
T/C (dose: 4.0 mg/kg/injection, schedule: Q01DX Z (im)): 117 % of control
T/C (dose: 4.0 mg/kg/injection, schedule: Q01DX Z (sc)): 102 % of control
T/C (dose: 5.0 mg/kg/injection, schedule: Q01DX010 (ip)): 113 % of control and 122 % of control
T/C (dose: 5.0 mg/kg/injection, schedule: Q01DX017 (ip)): 105 % of control
T/C (dose: 5.0 mg/kg/injection, schedule: Q#A X034 (ip)): 118 % of control
T/C (dose: 6.5 mg/kg/injection, schedule: Q07DX003 (ip)): 115 % of control and 121 % of control
T/C (dose: 6.65 mg/kg/injection, schedule: Q#A X Z (ip)): 151 % of control
T/C (dose: 8.0 mg/kg/injection, schedule: Q01DX006 (iv)): 105 % of control
T/C (dose: 8.0 mg/kg/injection, schedule: Q01DX010 (ip)): 118 % of control and 124 % of control
T/C (dose: 8.0 mg/kg/injection, schedule: Q01DX Z (im)): 115 % of control
T/C (dose: 8.0 mg/kg/injection, schedule: Q01DX Z (sc)): 113 % of control
T/C (dose: 10.0 mg/kg/injection, schedule: Q12HX010 (ip)): 119 % of control
T/C (dose: 10.0 mg/kg/injection, schedule: Q## X032 (ip)): 119 % of control
T/C (dose: 12.5 mg/kg/injection, schedule: Q01DX010 (ip)): 150 % of control
T/C (dose: 13.0 mg/kg/injection, schedule: Q## X004 (ip)): 114 % of control
T/C (dose: 15.0 mg/kg/injection, schedule: Q01DX010 (ip)): 152 % of control
T/C (dose: 15.0 mg/kg/injection, schedule: Q01DX Z (oral)): 119 % of control
T/C (dose: 16.0 mg/kg/injection, schedule: Q01DX006 (iv)): 112 % of control
T/C (dose: 16.0 mg/kg/injection, schedule: Q01DX Z (sc)): 115 % of control
T/C (dose: 18.0 mg/kg/injection, schedule: Q01DX001 (ip)): 104 % of control and 106 % of control
T/C (dose: 20.0 mg/kg/injection, schedule: Q01DX015 (ip)): 153 % of control
T/C (dose: 20.0 mg/kg/injection, schedule: Q12HX006 (ip)): 110 % of control
T/C (dose: 20.0 mg/kg/injection, schedule: Q12HX010 (ip)): 120 % of control
T/C (dose: 20.0 mg/kg/injection, schedule: Q## X004 (ip)): 121 % of control
T/C (dose: 20.0 mg/kg/injection, schedule: Q#A X034 (ip)): 103 % of control
T/C (dose: 21.0 mg/kg/injection, schedule: Q## X015 (ip)): 152 % of control
T/C (dose: 22.0 mg/kg/injection, schedule: Q## X032 (ip)): 124 % of control
T/C (dose: 23.0 mg/kg/injection, schedule: Q03DX006 (ip)): 113 % of control
T/C (dose: 25.0 mg/kg/injection, schedule: Q01DX001 (ip)): 122 % of control and 124 % of control
T/C (dose: 25.0 mg/kg/injection, schedule: Q01DX005 (ip)): 150 % of control
T/C (dose: 26.0 mg/kg/injection, schedule: Q01DX001 (ip)): 103 % of control
T/C (dose: 27.0 mg/kg/injection, schedule: Q01DX001 (ip)): 110 % of control and 120 % of control
T/C (dose: 30.0 mg/kg/injection, schedule: Q01DX003 (ip)): 151 % of control
T/C (dose: 30.0 mg/kg/injection, schedule: Q01DX015 (ip)): 153 % of control
T/C (dose: 30.0 mg/kg/injection, schedule: Q## X004 (ip)): 121 % of control
T/C (dose: 31.0 mg/kg/injection, schedule: Q## X015 (ip)): 152 % of control
T/C (dose: 32.0 mg/kg/injection, schedule: Q01DX006 (iv)): 115 % of control and 117 % of control
T/C (dose: 32.0 mg/kg/injection, schedule: Q01DX Z (im)): 153 % of control
T/C (dose: 32.0 mg/kg/injection, schedule: Q01DX Z (ip)): 102 % of control
T/C (dose: 32.0 mg/kg/injection, schedule: Q01DX Z (sc)): 151 % of control
T/C (dose: 32.0 mg/kg/injection, schedule: Q## X015 (ip)): 103 % of control and 115 % of control
T/C (dose: 32.0 mg/kg/injection, schedule: Q## X032 (ip)): 122 % of control
T/C (dose: 38.0 mg/kg/injection, schedule: Q01DX015 (ip)): 100 % of control
T/C (dose: 39.5 mg/kg/injection, schedule: Q01DX015 (ip)): 123 % of control
T/C (dose: 39.5 mg/kg/injection, schedule: Q## X015 (ip)): 123 % of control
T/C (dose: 40.0 mg/kg/injection, schedule: Q01DX001 (ip)): 107 % of control and 110 % of control and 112 % of control
T/C (dose: 40.0 mg/kg/injection, schedule: Q01DX017 (ip)): 108 % of control
T/C (dose: 40.0 mg/kg/injection, schedule: Q12HX006 (ip)): 120 % of control
T/C (dose: 45.0 mg/kg/injection, schedule: Q01DX015 (ip)): 102 % of control and 110 % of control
T/C (dose: 45.0 mg/kg/injection, schedule: Q03DX006 (ip)): 120 % of control
T/C (dose: 47.0 mg/kg/injection, schedule: Q## X015 (ip)): 98 % of control and 103 % of control
T/C (dose: 50.0 mg/kg/injection, schedule: Q01DX001 (ip)): 113 % of control and 122 % of control
T/C (dose: 50.0 mg/kg/injection, schedule: Q01DX009 (ip)): 102 % of control
T/C (dose: 54.0 mg/kg/injection, schedule: Q01DX001 (ip)): 120 % of control
T/C (dose: 60.0 mg/kg/injection, schedule: Q01DX001 (ip)): 115 % of control
T/C (dose: 60.0 mg/kg/injection, schedule: Q01DX Z (oral)): 119 % of control
T/C (dose: 61.0 mg/kg/injection, schedule: Q01DX001 (ip)): 116 % of control
T/C (dose: 64.0 mg/kg/injection, schedule: Q01DX Z (im)): 109 % of control
T/C (dose: 64.0 mg/kg/injection, schedule: Q01DX Z (sc)): 102 % of control
T/C (dose: 80.0 mg/kg/injection, schedule: Q12HX010 (ip)): 115 % of control
T/C (dose: 90.0 mg/kg/injection, schedule: Q01DX001 (ip)): 121 % of control
T/C (dose: 90.0 mg/kg/injection, schedule: Q03DX006 (ip)): 119 % of control
T/C (dose: 91.0 mg/kg/injection, schedule: Q01DX001 (ip)): 113 % of control
T/C (dose: 100.0 mg/kg/injection, schedule: Q01DX001 (ip)): 111 % of control
T/C (dose: 100.0 mg/kg/injection, schedule: Q01DX003 (ip)): 117 % of control
T/C (dose: 100.0 mg/kg/injection, schedule: Q02DX008 (ip)): 95 % of control
T/C (dose: 105.0 mg/kg/injection, schedule: Q07DX003 (ip)): 151 % of control and 152 % of control
T/C (dose: 121.0 mg/kg/injection, schedule: Q01DX001 (ip)): 119 % of control
T/C (dose: 138.0 mg/kg/injection, schedule: Q01DX001 (ip)): 152 % of control
T/C (dose: 160.0 mg/kg/injection, schedule: Q12HX006 (ip)): 113 % of control
T/C (dose: 180.0 mg/kg/injection, schedule: Q03DX006 (ip)): 105 % of control
T/C (dose: 200.0 mg/kg/injection, schedule: Q01DX001 (ip)): 103 % of control
T/C (dose: 256.0 mg/kg/injection, schedule: Q01DX006 (iv)): 94 % of control
T/C (dose: 400.0 mg/kg/injection, schedule: Q01DX001 (ip)): 100 % of control
